Results on six compounds are retold here after patent USRE48842E1, “Pyrimido-pyrrolo-oxazine-dione compound inhibitors of the cystic fibrosis transmembrane conductance regulator protein and uses therefor” (The Regents of the University of California, priority 2011, dated 2021).

Where “and” joins values, the source holds several entries; their conditions need not be identical. Equal entries are not always repeated.

Series [1] addresses T1, human wildtype CFTR (Homo sapiens, UniProt P13569). Nature of the series: Short-circuit current analysis of CFTR inhibition in CFTR-expressing FRT cells. Format: cell-based. The arrangement: expressed in transfected cells; host or cells: Fischer rat thyroid (FRT) epithelial cells on Snapwell inserts. The following applies: for inhibition of short-circuit current: 100 nM. The method, then:
Short-Circuit Current—Snapwell inserts containing CFTR-expressing FRT cells were mounted in an Ussing chamber. The hemichambers contained 5 mL of buffer containing 75 mM NaCl and 75 mM Na gluconate (apical) and 150 mM NaCl (basolateral) (pH 7.3), and the basolateral membrane was permeabilized with 250 μg/mL amphotericin B, as described (see, e.g., Sonawane et al., FASEB J 2006, supra). Short-circuit current was recorded continuously using a DVC-1000 voltage clamp (World Precision Instruments) using Ag/AgCl electrodes and 3 M KCl agar bridges.
Current was measured in CFTR-expressing FRT cells in which the basolateral membrane was permeabilized and in the presence of a transepithelial chloride concentration gradient, so that current is a quantitative linear measure of CFTR function. CFTR was activated by forskolin, followed by serial additions of increasing concentrations of test compounds.
CFTR inhibition potency was measured by short-circuit current analysis in FRT epithelial cells expressing human CFTR in presence of a transepithelial chloride gradient and in which the basolateral membrane was permeabilized with amphotericin B. Under these conditions short-circuit current is proportional to CFTR chloride conductance.

Series [2] is described as follows: In vitro metabolism in hepatic microsomes (LC/MS). The following applies: in the presence of NADPH. Format: in vitro ADME, rat. As for the experimental part: (§1) In Vitro Metabolism in Hepatic Microsomes—A compound of structure (I) was incubated for specified times at 37° C. with rat liver microsomes (e.g., 1 mg protein/ml; Sigma-Aldrich, St. Louis, Mo.) in potassium phosphate buffer (100 mM) containing NADPH (0 or 1 mM). The mixture was then chilled on ice, and 0.5 ml of ice-cold ethyl acetate was added. Samples were centrifuged for 15 min at 3,000 rpm, and the supernatant was evaporated to dryness under nitrogen. The residue was dissolved in 150 μl mobile phase (acetonitrile:water 3:1, containing 0.1% formic acid) for LC/MS analysis. Reverse-phase HPLC separations were carried out using a Waters C18 column (2.1×100 mm, […]) equipped with a solvent delivery system (Waters model 2690, Milford, Mass.). The solvent system consisted of a linear gradient from 5 to 95% acetonitrile run over 16 min (0.2 mL/min flow rate). Mass spectra were acquired on an Alliance HT 2790+ZQ mass spectrometer using negative ion detection.
as §1, with “Liquid Chromatography/Mass Spectrometry—Compounds (each at 5 μM) were” for “In Vitro Metabolism in Hepatic Microsomes—A compound of structure (I) was”, “(1” for “(e.g., 1”, “150” for “150 μl”, “detection, scanning from 150 to 1500 Da. The electrospray ion source parameters were as follows: capillary voltage 3.5 kV (positive ion mode), cone voltage 37 V, source temperature 120° C., desolvation temperature 250° C., cone gas flow 25 L/h, and dessolvation gas flow 350 L/h.” for “detection.”
PPQ-102 is a small-molecule inhibitor of CFTR chloride conductance with efficacy in preventing and reversing cyst formation in an organ culture model of PKD (see, e.g., Tradtrantip et al., J. Med. Chem. 2009, supra; Int'l Patent Appl. Publication No. WO 2011/019737). Preliminary analysis of the metabolic stability and aqueous solubility of PPQ-102, indicated poorer metabolic stability and lower water solubility (˜2 μM in albumin-free saline) than desired for optimal drugability. In vitro metabolic stability was determined by compound incubation with hepatic microsomes at 37° C. for specified times in the absence vs. presence of NADPH, following by LC/MS analysis. Shown in FIG. 6A is PPQ-102 disappearance in hepatic microsomes in the presence of NADPH, with ˜60% disappearance in 30 min.

Series [3] deals with T1, human wildtype CFTR. Nature of the series: Fluorescence plate reader assay of CFTR inhibition (iodide influx). To be noted: Determined by micro-plate reader assay; FRT cells co-expressing human wild type CFTR and YFP-H148Q. Format: cell-based. Set-up: expressed in transfected cells; host or cells: Fischer rat thyroid (FRT) cells. As for the experimental part:
Cell Culture and Plate Reader Assay of CFTR Inhibition—Fischer rat thyroid (FRT) cells co-expressing human wild type CFTR and the halide indicator YFP-H148Q were cultured in 96-well black-walled microplates (Corning Costar) at a density of 20,000 cells per well in Coon's modified F12 medium containing 10% fetal bovine serum, 2 mM L-glutamine, 100 U/mL penicillin and 100 μg/mL streptomycin. CFTR chloride conductance was assayed at 48 h after plating on a FluoStar fluorescence plate reader (BMG Lab Technologies) as described (see, e.g., Ma et al., J Clin Invest. 2002, supra). Each well was washed 3 times with PBS, leaving 60 μL PBS. Test compounds were added and incubated with the cells for 45 min. Then, 5 μL of a CFTR-activating cocktail (10 μM forskolin, 100 μM IBMX, 20 μM apigenin in PBS) was added. After 15 min, each well was assayed for iodide influx by recording fluorescence continuously (200 ms per point) for 2 s (baseline) and then for 10 s after rapid addition of 160 μL of isosmolar PBS in which 137 mM chloride was replaced by iodide. The initial rate of iodide influx was computed from fluorescence data by non-linear regression.
Initial testing of the compounds for the capability to inhibit CFTR was performed using a plate-reader assay in which iodide influx was measured in FRT cells co-expressing human wild type CFTR and the iodide-sensing yellow fluorescent protein YFP-H148Q/1152L. […] Table B below provides IC50 values for PPQ and BPO compounds.
The relative IC50 values obtained from the plate reader assay are useful for comparisons. Absolute IC50 values obtained from the plate-reader assay are approximate, generally underestimating compound potency because of assay non-linearities, pH-dependent YFP fluorescence, the use of iodide instead of chloride, and compound dilution at the start of the assay (see, e.g., Galietta et al., Am. J. Physiol. Cell Physiol. 281:C1734-42 (2001)).

[4] abbreviates: Determined by short-circuit current assay, read-out: IC50 (μM)^B.
[5] abbreviates: short-circuit current, FRT cells expressing human CFTR, forskolin-stimulated, read-out: IC50 for inhibition of CFTR chloride conductance.

T1 sequence (P13569 whole entry): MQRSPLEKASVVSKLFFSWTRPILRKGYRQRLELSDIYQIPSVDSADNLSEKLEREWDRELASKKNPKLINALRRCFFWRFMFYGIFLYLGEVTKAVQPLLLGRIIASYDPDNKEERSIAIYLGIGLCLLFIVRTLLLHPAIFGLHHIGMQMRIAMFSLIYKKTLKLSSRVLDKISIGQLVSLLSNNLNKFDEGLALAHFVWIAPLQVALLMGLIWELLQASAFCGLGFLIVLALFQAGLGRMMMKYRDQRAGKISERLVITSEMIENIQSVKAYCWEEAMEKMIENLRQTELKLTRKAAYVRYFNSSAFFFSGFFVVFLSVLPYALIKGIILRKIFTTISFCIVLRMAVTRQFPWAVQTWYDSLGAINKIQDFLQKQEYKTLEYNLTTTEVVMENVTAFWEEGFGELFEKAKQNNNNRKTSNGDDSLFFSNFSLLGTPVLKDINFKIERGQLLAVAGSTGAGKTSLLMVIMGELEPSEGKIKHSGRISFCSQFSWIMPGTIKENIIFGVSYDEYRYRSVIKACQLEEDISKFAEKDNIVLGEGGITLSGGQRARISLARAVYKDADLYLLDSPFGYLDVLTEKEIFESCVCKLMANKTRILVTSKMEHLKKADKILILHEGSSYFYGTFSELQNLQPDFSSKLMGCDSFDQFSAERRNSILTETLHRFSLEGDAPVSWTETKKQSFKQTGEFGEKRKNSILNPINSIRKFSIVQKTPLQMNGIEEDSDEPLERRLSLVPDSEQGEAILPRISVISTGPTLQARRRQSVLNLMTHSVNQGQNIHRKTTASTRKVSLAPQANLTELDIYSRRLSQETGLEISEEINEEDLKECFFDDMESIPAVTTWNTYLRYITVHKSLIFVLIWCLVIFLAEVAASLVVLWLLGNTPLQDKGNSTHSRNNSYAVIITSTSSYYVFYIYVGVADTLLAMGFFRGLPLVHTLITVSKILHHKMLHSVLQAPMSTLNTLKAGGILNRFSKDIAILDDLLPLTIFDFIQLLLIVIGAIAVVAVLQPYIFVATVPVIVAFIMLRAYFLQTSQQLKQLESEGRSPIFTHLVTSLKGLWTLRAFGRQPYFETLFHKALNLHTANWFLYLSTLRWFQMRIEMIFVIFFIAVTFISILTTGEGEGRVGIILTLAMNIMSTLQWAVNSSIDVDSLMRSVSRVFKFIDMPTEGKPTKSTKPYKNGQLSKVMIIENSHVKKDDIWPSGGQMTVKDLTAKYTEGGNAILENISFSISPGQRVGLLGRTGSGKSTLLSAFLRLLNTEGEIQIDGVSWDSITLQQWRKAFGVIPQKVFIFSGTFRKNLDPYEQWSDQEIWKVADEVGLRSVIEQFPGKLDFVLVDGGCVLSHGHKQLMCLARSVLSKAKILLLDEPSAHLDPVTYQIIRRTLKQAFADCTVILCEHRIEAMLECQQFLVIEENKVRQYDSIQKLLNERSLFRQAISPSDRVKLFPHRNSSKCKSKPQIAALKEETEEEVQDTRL

One may read the IC50 as the midpoint of a concentration-inhibition curve. In the case of `Cn1c(=O)c2c(-c3ccccc3)n3c(c2n(C)c1=O)C(c1ccc(Br)o1)Nc1ccccc1-3` (stereo not shown) [PPQ-10, 6-(5-Bromofuran-2-yl)-7,9-dimethyl-11-phenyl-5,6-dihydropyrimido[4′,5′-3,4]pyrrolo[1,2-a]quinoxaline-8,10-(7H,9H)-dione], the IC50 worked out at 0.05 µM in series [1] (setting [4]) and 90 nM in series [3]. Besides, the “metabolic stability in hepatic microsomes (in words)” value (shortened to “metabolic stability”) in series [2] is on record as “substantially more stable than PPQ-102”.
For the compound `Cn1c(=O)c2c(-c3ccccc3)n3c(c2n(C)c1=O)C(c1ccc(Br)o1)Oc1ccccc1-3` (stereo not shown) [BPO-16, 6-(5-Bromofuran-2-yl)-7,9-dimethyl-11-phenyl-6H-benzo[b]pyrimido[4′,5′-3,4]pyrrolo[1,2-d]oxazine-8,10-(7H,9H)-dione], the IC50 in series [1] (setting [4]) stood at 0.09 µM; in series [3] it was 200 nM. For the same compound, the “metabolic stability” value in series [2] is listed as “better stability than PPQ-102”.
For `Cn1c(=O)c2c(-c3ccccc3)n3c(c2n(C)c1=O)[C@H](c1ccc(Br)o1)Oc1ccc(C(=O)O)cc1-3` (single isomer, unassigned) [(R)-BPO-27, 6R-(5-Bromofuran-2-yl)-7,9-dimethyl-8,10-dioxo-11-phenyl-7,8,9,10-tetrahydro-6H-benzo[b]pyrimido [4′,5′:3,4]pyrrolo [1,2-d][1,4]oxazine-2-carboxylic acid], in series [1], the “inhibition of short-circuit current” value was “completed inhibited current”. In addition, in series [1] (setting [5]), the IC50 is 0.004 µM and ~0.004 µM. In series [2], the “metabolic stability” value is recorded as “little metabolism”.
With `Cn1c(=O)c2c(-c3ccccc3)n3c(c2n(C)c1=O)C(c1ccc(Br)o1)Oc1ccc([N+](=O)[O-])cc1-3` (stereo not shown) [BPO-21, 6-(5-bromofuran-2-yl)-7,9-Dimethyl-2-nitro-11-phenyl-6H-benzo[b]pyrimido[4′,5′-3,4]pyrrolo[1,2-d]oxazine-8,10-(7H,9H)-dione], the IC50 is 0.025 µM in series [1] (setting [4]) and 120 nM in series [3]. Moreover, the “inhibition of CFTR chloride conductance (in words)” value in series [1] (short-circuit current) is “substantially greater CFTR inhibition potency”. Further, the “metabolic stability” value in series [2] was “excellent metabolic stability”.
Regarding `Cc1ccc(C2Oc3ccc([N+](=O)[O-])cc3-n3c(-c4ccccc4)c4c(=O)n(C)c(=O)n(C)c4c32)o1` (stereo not shown) [BPO-22, 7,9-Dimethyl-6-(5-methylfuran-2-yl)-2-nitro-11-phenyl-6H-benzo[b]pyrimido[4′,5′-3,4]pyrrolo[1,2-d]oxazine-8,10-(7H,9H)-dione], the 50% inhibitory concentration (IC50) came out at 0.025 µM in series [1] (setting [4]) and 100 nM in series [3].
For `Cn1c(=O)c2c(-c3ccccc3)n3c(c2n(C)c1=O)[C@@H](c1ccc(Br)o1)Oc1ccc(C(=O)O)cc1-3` (single isomer, unassigned) [(S)-BPO-27, 6S-(5-Bromofuran-2-yl)-7,9-dimethyl-8,10-dioxo-11-phenyl-7,8,9,10-tetrahydro-6H-benzo[b]pyrimido [4′,5′:3,4]pyrrolo [1,2-d][1,4]oxazine-2-carboxylic acid], the “inhibition of short-circuit current” value in series [1] is “no significant inhibition”. The “inhibition of CFTR chloride conductance (in words)” value in series [1] (short-circuit current) is “inactive”. Further, the IC50 in series [1] (setting [5]) is about 0.004 µM. Also, the “metabolic stability” value in series [2] is reported as “little metabolism”.
